Test results as given in article PMC13652807, “A co-evolved peptide-GPCR system senses host entry to drive fungal infection” (Nature Communications, 2026).
Substitutions are numbered along the chain they refer to. pEC50: −log10 of the molar value. Where a SMILES comes first, the peptide text is derived from it.

What was measured:
[1] = biological target: T1, wild-type Gpe1 (Mycosarcoma maydis, UniProt A0A0D1E6B3); assay: Dose-response of synthetic peptide in yeast reporter assay, wild-type Gpe1; format: cell-based, Ustilago maydis; settings: for pEC50: 9 concentrations up to 15 µM, fluorescence after 20 h, four-parameter fit, Fig. 2b/2d, mean of three independent biological experiments
T1 construct: expressed in transfected cells; host or cells: Saccharomyces cerevisiae JTy014-derived reporter strain, plasmid pIL0186 (pRS416 backbone)
T1 sequence (A0A0D1E6B3 1-435): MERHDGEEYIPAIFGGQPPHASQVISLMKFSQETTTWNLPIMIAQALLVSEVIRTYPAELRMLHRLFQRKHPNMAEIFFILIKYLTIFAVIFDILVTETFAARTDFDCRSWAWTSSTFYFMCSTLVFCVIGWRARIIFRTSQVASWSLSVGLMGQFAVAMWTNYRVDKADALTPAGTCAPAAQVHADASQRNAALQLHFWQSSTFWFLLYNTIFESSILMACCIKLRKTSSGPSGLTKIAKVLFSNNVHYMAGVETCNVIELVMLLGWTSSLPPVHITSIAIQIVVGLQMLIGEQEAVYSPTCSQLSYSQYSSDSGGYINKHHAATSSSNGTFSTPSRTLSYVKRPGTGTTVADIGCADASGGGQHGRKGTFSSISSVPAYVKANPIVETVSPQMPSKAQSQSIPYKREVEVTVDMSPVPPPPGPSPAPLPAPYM
Description: Experiments were performed in 96-well microtiter plates using a microplate reader (Tecan), and OD600 and red fluorescence were measured after 20 h. A four-parameter non-linear regression model (curve fit) was used using Prism (GraphPad 5): Agonist concentration vs. response (variable slope). After analysis, EC50, basal activation, maximal activation and the Hill coefficient was extracted as previously described.

[2] = biological target: T2, Gpe1N246D+N247G (Mycosarcoma maydis, UniProt A0A0D1E6B3, N246D/N247G); assay: Dose-response in yeast reporter assay, Gpe1 N246D+N247G; format: cell-based, Ustilago maydis; settings: Fig. 4e; receptor variant N246D+N247G; read-out: apparent EC50
T2 construct: expressed in transfected cells; host or cells: Saccharomyces cerevisiae reporter strain, plasmid pIL0351 (made from pIL0186)
T2 sequence (A0A0D1E6B3 1-435 N246D/N247G): T1 sequence (A0A0D1E6B3 1-435) with N246D, N247G
Description: (§1) To test the functional relevance of this putative TM3–TM6 activation module, we generated Gpe1 variants targeting R133 and the adjacent TM6 residues N246 and N247 (Supplementary Fig. 5). Gpe1 variant activation was analyzed by the yeast reporter system. […] However, reduced activity of individual variants may also reflect effects on receptor stability or intracellular trafficking competence.
(§2) For the plasmid constructions, standard molecular cloning strategies and techniques were applied. For GPCR expression in S. cerevisiae, the ScSte2 expression vector pRS416[22] was digested with SpeI and XhoI to remove the ScSte2 gene. The pure backbone vector was used for classical restriction-ligation (T4 ligase) to clone the GPCR genes inside using unique restriction sites (SpeI and XhoI) added in the PCR gene amplification. For plasmid amplification, recombinant plasmids were transformed in chemically competent E. coli Top10 cells. […]
(§3) For dose response curves, 9 different concentrations (15 μM and […] five-fold dilutions starting at 8 μM peptide, sterile water was used as no peptide control) of the specific synthetic peptide were used. Experiments were performed in 96-well microtiter plates using a microplate reader (Tecan), and OD600 and red fluorescence were measured after 20 h. […]

[3] = biological target: T3, Gpe1N246L+N247L (Mycosarcoma maydis, UniProt A0A0D1E6B3, N246L/N247L); assay: Dose-response in yeast reporter assay, Gpe1 N246L+N247L; format: cell-based, Ustilago maydis; settings: Fig. 4e; receptor variant N246L+N247L
T3 construct: expressed in transfected cells; host or cells: Saccharomyces cerevisiae reporter strain, plasmid pIL0350 (made from pIL0186)
T3 sequence (A0A0D1E6B3 1-435 N246L/N247L): T1 sequence (A0A0D1E6B3 1-435) with N246L, N247L
Description: as §1, §2, §3

[4] = biological target: T4, Gpe1R133A (Mycosarcoma maydis, UniProt A0A0D1E6B3, R133A); assay: Dose-response in yeast reporter assay, Gpe1 R133A; format: cell-based, Ustilago maydis; settings: Fig. 4e; receptor variant R133A
T4 construct: expressed in transfected cells; host or cells: Saccharomyces cerevisiae reporter strain, plasmid pIL0373 (made from pIL0186)
T4 sequence (A0A0D1E6B3 1-435 R133A): T1 sequence (A0A0D1E6B3 1-435) with R133A
Description: as §1, §2, §3

[5] = biological target: G-protein-coupled receptor promoting fungal in planta expansion 1 (Gpe1) (Ustilago maydis)
[6] = biological target: UhGpe1 (Ustilago hordei)
[7] = system: UmGpe1 (Gpe1, UMAG_01374); assay: GPCR activation assay in S. cerevisiae (yEmRFP reporter under FUS1 promoter), added protein/peptides; format: cell-based, Ustilago maydis
Description: To enable ligand identification, Gpe1 was then expressed in an engineered Saccharomyces cerevisiae strain to test receptor activation through production of a fluorescent reporter[22]. This strain is devoid of both endogenous mating GPCR genes (STE2 and STE3), all pheromone genes (MFA1/2 and MFALPHA1/MFALPHA2), BAR1, SST2 and FAR1[22]. And carries an unmodified version of ScGPA1, which is the homolog of U. maydis Gpa1[23]. The coupling of ScGPA1 with Gpe1, and later MAPK pathway activation, lead to the induction of a red fluorescent protein (yEmRFP) under control of the FUS1 promoter serves as readout.
The activation assays for each GPCR were performed as previously described with slight modifications[22]. […] Experiments were performed in 96-well microtiter plates using a microplate reader (Tecan), and OD600 and red fluorescence were measured after 8 h. Experiments were run in triplicate.
The mixture of tryptic-digested UmPit2 peptides were subjected to separation with a binary gradient of from 5 % to 95 % acetonitrile with a flowrate of 2 mL/min on an HPLC system (Agilent) for 60 min operated in a C-18 reverse phase column. The injection point was after 2 min and while the separation process was running, 2 mL sample was collected until fraction number 50. […]

[8] = system: S. cerevisiae Ste2; assay: GPCR activation assay in S. cerevisiae, positive control; format: cell-based, Saccharomyces cerevisiae; settings: 10 µM α-factor, full agonist positive control; set to 100 %
Text: Three extra- and intracellular loops connect the TMs, with the N-terminal 35 residues and the 38 residues of the second extracellular loop (ECL2) forming an extracellular extension (Fig. 1b). ECL2 is also predicted to be connected to TM3 via a disulfide bond formed by Cys178 and Cys108 (Fig. 1b), a hallmark of many rhodopsin-class GPCRs[21]. To enable ligand identification, Gpe1 was then expressed in an engineered Saccharomyces cerevisiae strain to test receptor activation through production of a fluorescent reporter. This strain is devoid of both endogenous mating GPCR genes (STE2 and STE3), all pheromone genes (MFA1/2 and MFALPHA1/MFALPHA2), BAR1, SST2 and FAR1[22]. And carries an unmodified version of ScGPA1, which is the homolog of U. maydis Gpa1[23]. The coupling of ScGPA1 with Gpe1, and later MAPK pathway activation, lead to the induction of a red fluorescent protein (yEmRFP) under control of the FUS1 promoter serves as readout. Western blot analysis confirmed expression of Gpe1 in S. cerevisiae (Supplementary Fig.1b).
The activation assays for each GPCR were performed as previously described with slight modifications. […] Experiments were performed in 96-well microtiter plates using a microplate reader (Tecan), and OD600 and red fluorescence were measured after 8 h. Experiments were run in triplicate.

In the case of `CC(C)C[C@H](NC(=O)[C@H](CO)NC(=O)CNC(=O)[C@@H](NC(=O)[C@H](Cc1ccccc1)NC(=O)CNC(=O)[C@H](Cc1ccccc1)NC(=O)[C@H](Cc1c[nH]c2ccccc12)NC(=O)[C@@H](N)Cc1c[nH]c2ccccc12)[C@@H](C)O)C(=O)O` [Pit2.5] (H-WWFGFTGSL-OH), the pEC50 [1] was 7.10, the pEC50 [2] was 6.40 and the pEC50 [3] was under 4.82. It also gave a pEC50 [4] of under 4.82.
Compound `CC(C)C[C@H](NC(=O)[C@H](CO)NC(=O)[C@H](CC(C)C)NC(=O)[C@@H](NC(=O)[C@H](Cc1ccccc1)NC(=O)CNC(=O)[C@H](Cc1ccccc1)NC(=O)[C@H](Cc1c[nH]c2ccccc12)NC(=O)[C@@H](N)Cc1c[nH]c2ccccc12)[C@@H](C)O)C(=O)O` [pit2.17] (H-WWFGFTLSL-OH) has a pEC50 [1] of 7.64.
AWFGFTGSL [pit2.13] was tested, and the “Receptor activation in dose-response (in words)” value ([1]; Fig. 2d) was “abolished receptor activation”.
Pit2.5 (…) (peptide) showed an EC50 of the yEmRFP reporter in S. cerevisiae, dose response with synthetic peptide [5] of 80 nM and an activation level (% activity) in the S. cerevisiae biosensor assay [6] of 30%.
In the case of Pit2.5-G07L (peptide), the EC50 of the yEmRFP reporter in S. cerevisiae, dose response with synthetic peptide; maximum fluorescence reduced [5] was 23 nM.
“Pit2: purified recombinant U. maydis effector protein Pit2 (UMAG_01375) lacking its signal peptide” was tested, and the “Gpe1 activation level, fluorescence normalized to the Ste2 activation being 100 %” value ([7]; 100 µM purified full-length Pit2 lacking signal peptide, red fluorescence after 8 h, mean of three independent biological experiments) was ~ 25%.
Compound SrPit2 peptide has an activation level (% activity) in the S. cerevisiae biosensor assay [6] of 45%.
With WWFGFTGSLGK the “Identification as Gpe1 agonist” value ([7]; peptide fractionation of tryptic Pit2 digest and mass spectrometry) was “Gpe1 agonist”.
In the case of α-factor, the “Ste2 activation, fluorescence level (normalization reference)” value [8] was 100%.
